Assay results: the NIST ThermoML archive (doi:10.1021/je025660t)

Conditions: Liquid

COCC(C)O (centres undefined) [1-methoxy-2-propanol]
Conditions | vapor or sublimation pressure [kPa]
331.47 K | 9.246
333.15 K | 10.01
339.12 K | 13.11
343.15 K | 15.79
347.71 K | 19.25
351.56 K | 22.64
353.15 K | 24.17
355.59 K | 26.69
358.15 K | 29.57
360.78 K | 32.79
363.01 K | 35.74
368.23 K | 43.48
373.31 K | 52.31

CCCCCN [1-pentanamine]
Conditions | vapor or sublimation pressure [kPa]
322.61 K | 13.08
328.37 K | 16.87
333.14 K | 20.65
338.07 K | 25.25
340.66 K | 27.99
343.16 K | 30.85
345.56 K | 33.81
348.11 K | 37.22
353.15 K | 44.75
358.15 K | 53.38
363.14 K | 63.27
370.62 K | 80.72
377.93 K | 101.33

CCC#N [propanenitrile]
Conditions | vapor or sublimation pressure [kPa]
309.38 K | 10.59
311.56 K | 11.55
313.15 K | 12.55
315.89 K | 14.14
318.35 K | 15.71
320.51 K | 17.22
323.15 K | 19.22
325.74 K | 21.35
328.27 K | 23.64
330.82 K | 26.11
333.15 K | 28.57
335.82 K | 31.64
338.22 K | 34.61
343.08 K | 41.33
348.09 K | 49.32
353.15 K | 58.6

CC#N [acetonitrile]
Conditions | vapor or sublimation pressure [kPa]
302.25 K | 14.15
307.09 K | 17.52
311.49 K | 21.13
313.15 K | 22.65
316.27 K | 25.72
318.18 K | 27.78
320.65 K | 30.64
323.16 K | 33.8
326.16 K | 37.9
328.5 K | 41.38
331.15 K | 45.62
333.15 K | 49.06
335.84 K | 54.01
338.15 K | 58.58
343.18 K | 69.62
348.25 K | 82.37
353.1 K | 96.34
